# Results taken from patent US20240238258A1, “INHIBITORS OF PROTEIN TYROSINE PHOSPHATASE, COMPOSITIONS, AND METHODS OF USE” (BRISTOL-MYERS SQUIBB COMPANY, priority 2022, published 2024).
# pEC50, pIC50: −log10 of the molar value.
# How the values were obtained:
# human PTPN2 [1] = target: T1, human PTPN2 (Homo sapiens, UniProt P17706); experiment: PTPN2 BCHEM (PhosphoSens assay, substrate AQT0264); format: biochemical; conditions: PhosphoSens substrate AQT0264 20 μM, PTPN2 150 pM, room temperature
# T1 sequence (P17706 1-415): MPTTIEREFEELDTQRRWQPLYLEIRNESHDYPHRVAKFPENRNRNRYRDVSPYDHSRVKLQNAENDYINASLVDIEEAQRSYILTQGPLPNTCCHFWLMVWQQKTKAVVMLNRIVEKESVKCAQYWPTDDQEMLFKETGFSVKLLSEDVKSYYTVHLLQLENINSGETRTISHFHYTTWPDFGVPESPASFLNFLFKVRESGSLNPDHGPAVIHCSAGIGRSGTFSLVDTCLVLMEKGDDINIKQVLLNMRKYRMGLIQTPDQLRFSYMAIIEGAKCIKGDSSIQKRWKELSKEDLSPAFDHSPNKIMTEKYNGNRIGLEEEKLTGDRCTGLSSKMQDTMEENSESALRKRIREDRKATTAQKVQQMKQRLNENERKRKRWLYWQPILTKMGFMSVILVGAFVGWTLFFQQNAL
# Procedure: A PhosphoSens® kinase assay was performed as described by the vendor (AssayQuant Technologies, Marlborough, MA). Briefly, 1000× solutions of compounds were prepared in DMSO via serial dilution of the 10 mM DMSO stocks using 3-fold intervals in a 384-well reagent plate. 50 nL of the compound dilution series was then added to the corresponding wells of a 384-well assay plate. 40 mL of 1.25× substrate (AQT0264) in 1× assay buffer (50 mM HEPES pH 7.5, 500 μM EGTA, […] MgCl2, 0.01% Brij-35, 1% Glycerol, 1 mM DTT, and 0.2 mg/mL BSA) was transferred to each well of the assay plate to achieve a final substrate concentration of 20 μM. Finally, […] of 5× PTPN2 enzyme stock was added to each well of the assay plate for a final enzyme concentration of 150 pM. Reaction progress curves were collected by sampling fluorescence intensity at the excitation wavelength 360 nm (λex360) and emission wavelength 480 nm (λem480) every 71 seconds for one hour using a Synergy H4 plate reader (BioTek Instruments/Agilent Technologies, Winooski, VT) at room temperature.
# (§1) For IC50 data, High DDT concentration and/or DiFMUP substrate assays were used; a skilled artisan may use either assay.
# [2] = system: phosphorylated STAT1 in B16-F10 cells; experiment: Phospho-STAT1 (Tyr701) HTRF assay in B16-F10 cells with IFN-gamma; format: cell-based; conditions: mouse IFN-gamma 100 ng/mL, 1 hour, read-out: pSTAT1 HTRF B16 EC50
# Procedure: B16-F10 cells (ATCC, Manassas, VA, #CRL-6475) were cultured in DMEM growth medium (ThermoFisher Scientific, Waltham, MA, #11995-040) supplemented with 10% heat inactivated FBS (ThermoFisher Scientific, #16140-071) and 1% pen/strep (ThermoFisher Scientific, #15140-122). The cells were seeded into a white opaque 384-well tissue culture treated microplate (PerkinElmer, Waltham, MA, #6007688) at a density of 10,000 cells/well in 20 uL total volume and incubated overnight at 37 C and 5% CO2. 30 nL of compounds dissolved in DMSO were then transferred from a source plate into target wells with the Echo650 acoustic liquid handler (Beckman Coulter, Indianapolis, IN). Negative control wells received 30 nL of DMSO only (0.15% final concentration). Plates were returned to the incubator for 1 hour and then cells treated with either 5 uL of growth medium or 5 uL of growth medium containing 500 ng/ml of recombinant mouse IFN-gamma protein (R&D Systems, Minneapolis, MN, #485-MI/CF, 100 ng/mL final concentration) using the Assist automated pipetting platform (INTEGRA Biosciences, Hudson, NH). Plates were incubated at 37 C for 1 hour and assayed for phosphorylated STAT1 protein levels with the phospho-STAT1 (Tyr701) HTRF kit (Cisbio, Bedford, MA, #63ADK026PEH) according to manufacturer's instructions. HTRF signal intensity was collected with the EnVision 2105 plate reader (PerkinElmer) 24 hours later and analyzed with the Dotmatics software platform to calculate compound IC50 values.
# B16-F10 cells = experiment: Cell proliferation assay in B16-F10 cells with IFN-gamma (CellTiter-Glo); format: cell-based; conditions: 120 h, mouse IFN-gamma 10 ng/mL, read-out: PTPN2 Prolif 5d B16F10 EC50
# Procedure: B16-F10 cells (ATCC, Manassas, VA, #CRL-6475) were cultured in DMEM growth medium (ThermoFisher Scientific, Waltham, MA, #11995-040) supplemented with 10% heat inactivated FBS (ThermoFisher Scientific, #16140-071) and 1% pen/strep (ThermoFisher Scientific, #15140-122). The cells were seeded into two white opaque 384-well tissue culture treated microplates (PerkinElmer, Waltham, MA, #6007688) at a density of 100 cells/well in 20 uL total volume and incubated overnight at 37 C and 5% CO2. 30 nL of compounds dissolved in DMSO were then transferred from a source plate into target wells with the Echo650 acoustic liquid handler (Beckman Coulter, Indianapolis, IN). Negative control wells received 30 nL of DMSO only (0.15% final concentration). Plates were returned to the incubator for 1 hour and then cells treated with either 5 uL of growth medium or 5 uL of growth medium containing 50 ng/ml of recombinant mouse IFN-gamma protein (R&D Systems, Minneapolis, MN, #485-MI/CF, 10 ng/mL final concentration) using the Assist automated pipetting platform (INTEGRA Biosciences, Hudson, NH). Plates were incubated at 37C for 4 days and cell proliferation assayed with the CellTiter-Glo reagent (Promega, Madison, WI, #G7573, 25 uL per well). […] Off-target compound mediated cytotoxicity was identified by checking for growth inhibition in the absence of IFNg.
# human PTPN2 [3] = target: T1, human PTPN2; experiment: Phosphatase activity assay using DiFMUP as substrate (PTPN2 BCHEM DIFMUP); format: biochemical; parameters: purchased MilliporeSigma SRP5075; conditions: human PTPN2 0.15 nM, 10 mM DTT, room temperature
# Procedure: The PTPN2 biochemical assay was performed as follows, a 5× stock solution of human PTPN2 (SRP5075, MilliporeSigma, Burlington, MA) and a 1.25× stock solution of DiFMUP (D6567, ThermoFisher Scientific, Waltham, MA), were prepared in 1× reaction buffer consisting of 50 mM HEPES, pH 7.4, 1 mM EDTA, 150 mM NaCl, 0.2 mg/mL BSA, 100 U/mL catalase and 10 mM DTT. […] of the DiFMUP substrate solution, for a final concentration of […] DiFMUP substrate, was added to a Corning 3574 384-well, white, non-binding surface microtiter plate containing […] of serially diluted test compounds prepared in DMSO. The reactions were started with the addition of […] of the enzyme solution, for a final PTPN2 concentration of 0.15 nM, and monitored every 105 seconds for 60 minutes at λEX 360/λEM 460 in a BioTek Synergy HTX plate reader (Agilent Technologies, Santa Clara, CA) at room temperature. The initial linear portions of the progress curves were fit according to a linear equation to yield the slopes and converted to % inhibition based on a value of 100% activity for the no inhibitor treated control. IC50 values of each compound were obtained by fitting the % inhibition-compound concentration curves using Dotmatics software (Dotmatics, Bishops Stortford, Hertfordshire, England).
# as §1
pIC50 (human PTPN2 [1]),pEC50 [2],pEC50 (B16-F10 cells),pIC50 (human PTPN2 [3]),SMILES
6.03,< 4.82,< 4.82,6.14,"Cc1ccc(-c2csc(N(C)Cc3cc(O)c(N4CC(=O)NS4(=O)=O)c(F)c3)n2)c(C)c1 [EXAMPLE 1, 5-(4-(((4-(2,4-dimethylphenyl)thiazol-2-yl)(methyl)amino)methyl)-2-fluoro-6-hydroxyphenyl)-1,2,5-thiadiazolidin-3-one 1,1-dioxide]"
–,< 4.82,< 4.82,7.70,"O=C1CN(c2c(O)cc(CNc3cc[nH]n3)cc2F)S(=O)(=O)N1 [EXAMPLE 2, 5-(4-(((1H-pyrazol-3-yl)amino)methyl)-2-fluoro-6-hydroxyphenyl)-1,2,5-thiadiazolidin-3-one 1,1-dioxide]"
–,7.52,5.95,7.70,"O=C1CN(c2c(O)cc(CNc3ccon3)cc2F)S(=O)(=O)N1 [EXAMPLE 3, 5-(2-fluoro-6-hydroxy-4-((isoxazol-3-ylamino)methyl)phenyl)-1,2,5-thiadiazolidin-3-one 1,1-dioxide]"
7.70,6.46,5.99,7.52,"Cc1cc(NCc2cc(O)c(N3CC(=O)NS3(=O)=O)c(F)c2)no1 [EXAMPLE 4, 5-(2-fluoro-6-hydroxy-4-(((5-methylisoxazol-3-yl)amino)methyl)phenyl)-1,2,5-thiadiazolidin-3-one 1,1-dioxide]"
–,6.03,5.77,7.40,"O=C1CN(c2c(O)cc(CNc3nc[nH]n3)cc2F)S(=O)(=O)N1 [EXAMPLE 5, 5-(4-(((1H-1,2,4-triazol-3-yl)amino)methyl)-2-fluoro-6-hydroxyphenyl)-1,2,5-thiadiazolidin-3-one 1,1-dioxide]"
–,5.16,6.09,8.00,"Cn1ccc(NCc2cc(O)c(N3CC(=O)NS3(=O)=O)c(F)c2)n1 [EXAMPLE 6, 5-(2-fluoro-6-hydroxy-4-(((1-methyl-1H-pyrazol-3-yl)amino)methyl)phenyl)-1,2,5-thiadiazolidin-3-one 1,1-dioxide]"
–,6.82,6.34,8.00,"O=C1CN(c2c(O)cc(CNc3nncs3)cc2F)S(=O)(=O)N1 [EXAMPLE 7, 5-(4-(((1,3,4-thiadiazol-2-yl)amino)methyl)-2-fluoro-6-hydroxyphenyl)-1,2,5-thiadiazolidin-3-one 1,1-dioxide]"
–,5.33,5.23,6.80,"Cc1cnc(NCc2cc(O)c(N3CC(=O)NS3(=O)=O)c(F)c2)[nH]1 [EXAMPLE 8, 5-(2-fluoro-6-hydroxy-4-(((5-methyl-1H-imidazol-2-yl)amino)methyl)phenyl)-1,2,5-thiadiazolidin-3-one 1,1-dioxide]"
–,5.84,5.64,8.52,"O=C1CN(c2c(O)cc(CNc3nccs3)cc2F)S(=O)(=O)N1 [EXAMPLE 9, 5-(2-fluoro-6-hydroxy-4-((thiazol-2-ylamino)methyl)phenyl)-1,2,5-thiadiazolidin-3-one 1,1-dioxide]"
–,7.05,6.74,8.22,"O=C1CN(c2c(O)cc(CNc3ncc[nH]3)cc2F)S(=O)(=O)N1 [EXAMPLE 10, 5-(4-(((1H-imidazol-2-yl)amino)methyl)-2-fluoro-6-hydroxyphenyl)-1,2,5-thiadiazolidin-3-one 1,1-dioxide]"
–,6.68,6.80,8.00,"Cn1ccnc1NCc1cc(O)c(N2CC(=O)NS2(=O)=O)c(F)c1 [EXAMPLE 11, 5-(2-fluoro-6-hydroxy-4-(((1-methyl-1H-imidazol-2-yl)amino)methyl)phenyl)-1,2,5-thiadiazolidin-3-one 1,1-dioxide]"
–,6.64,6.25,8.00,"Cc1nnc(NCc2cc(O)c(N3CC(=O)NS3(=O)=O)c(F)c2)s1 [EXAMPLE 12, 5-(2-fluoro-6-hydroxy-4-(((5-methyl-1,3,4-thiadiazol-2-yl)amino)methyl)phenyl)-1,2,5-thiadiazolidin-3-one 1,1-dioxide]"
–,6.64,5.73,8.00,"Cc1csc(NCc2cc(O)c(N3CC(=O)NS3(=O)=O)c(F)c2)n1 [EXAMPLE 13, 5-(2-fluoro-6-hydroxy-4-(((4-methylthiazol-2-yl)amino)methyl)phenyl)-1,2,5-thiadiazolidin-3-one 1,1-dioxide]"
–,6.16,5.59,7.70,"Cc1cc(NCc2cc(O)c(N3CC(=O)NS3(=O)=O)c(F)c2)sn1 [EXAMPLE 14, 5-(2-fluoro-6-hydroxy-4-(((3-methylisothiazol-5-yl)amino)methyl)phenyl)-1,2,5-thiadiazolidin-3-one 1,1-dioxide]"
–,6.20,6.42,8.40,"Cc1cc(NCc2cc(O)c(N3CC(=O)NS3(=O)=O)c(F)c2)[nH]n1 [EXAMPLE 15, 5-(2-fluoro-6-hydroxy-4-(((3-methyl-1H-pyrazol-5-yl)amino)methyl)phenyl)-1,2,5-thiadiazolidin-3-one 1,1-dioxide]"
